{"source": "BindingDB's records for doi:10.1016/j.ejmech.2009.07.027", "about": "(Trinity College, 2009)", "test": "Induction of human SERT-dependent cytotoxicity in SERT expressing HEK293 cells after 48 hrs by neutral red assay", "data": [{"smiles": "CCSc1ccc(CC(CC)NC)cc1", "note": "(stereo unspecified) [2-N-Methylamino-1-(4-ethylthiophenyl)butane]", "values": [{"measurement": "EC50", "result": "> 100", "unit": "µM"}]}]}
